# Calls of active or inactive are those of the source. The calls are words filed in the database; no cut-off is given here.
# How the values were obtained:
# L6 = experiment: Induction of glucose uptake in rat L6 cells incubated for 24 hrs by GOD-POD technique; format: functional; parameters: concentration or dose not given beside the values
# [1] = Half life in male Wistar rat at 30 mg/kg, po measured upto 24 hrs; format: ADME, organism-based; settings: in vivo
# Rattus norvegicus [2] = experiment: Anti-diabetic activity in fructose-treated male Wistar rat assessed as sinusoidal congestion in liver 30 mg/kg, po administered for 15 days by H and E staining based analysis; format: functional, organism-based; settings: time 15.0 day
# Rattus norvegicus [3] = experiment: Anti-diabetic activity in fructose-treated male Wistar rat assessed as decrease in SGPT level at 30 mg/kg, po administered for 15 days (reference value: […]); format: functional; settings: time 15 day
# Rattus norvegicus [4] = experiment: Anti-diabetic activity in fructose-treated male Wistar rat assessed as increase in total cholesterol level at 30 mg/kg, po administered for 15 days (reference value: 93.68 +/-1.68 mg/dL); format: functional; settings: time 15 day
# Rattus norvegicus [5] = experiment: Anti-diabetic activity in fructose-treated male Wistar rat assessed as increase in GSH level in liver at 30 mg/kg, po administered for 15 days (reference value: 39.98 +/-0.86 nM/mg ); format: functional; settings: time 15 day
# [6] = Retention time of the compound by HPLC analysis; format: physicochemical
# [7] = Acute toxicity in male Wistar rat assessed as body weight gain at 10 mg/kg, po administered for 15 days; format: organism-based; settings: in vivo, 360 h, time 15 day
# [8] = Drug recovery in rat plasma at 100 mg/kg, po by HPLC analysis; format: ADME, organism-based; settings: in vivo
# Rattus norvegicus [9] = experiment: Anti-diabetic activity in fructose-treated male Wistar rat assessed as increase in LDL level at 30 mg/kg, po administered for 15 days (reference value: 40.32 +/-1.08 mg/dL); format: functional; settings: time 15 day
# [10] = Acute toxicity in male Wistar rat assessed as change in body weight at 10 mg/kg, po administered for 15 days; format: organism-based; settings: in vivo, 360 h, time 15 day
# Rattus norvegicus [11] = experiment: Anti-diabetic activity in fructose-treated male Wistar rat assessed as increase in glycogen content in skeletal muscle at 30 mg/kg, po administered for 15 days; format: functional, organism-based; settings: time 15.0 day
# Rattus norvegicus [12] = experiment: Anti-diabetic activity in fructose-treated male Wistar rat assessed as decrease in fasting blood glucose level at 30 mg/kg, po administered for 15 days; format: functional, organism-based; settings: time 15.0 day
# [13] = AUC (0 to infinity) in male Wistar rat at 30 mg/kg, po measured upto 24 hrs; format: ADME, organism-based; settings: in vivo
# Rattus norvegicus [14] = experiment: Anti-diabetic activity in fructose-treated male Wistar rat assessed as steatosis in liver 30 mg/kg, po administered for 15 days by H and E staining based analysis; format: functional, organism-based; settings: time 15.0 day
# Rattus norvegicus [15] = experiment: Anti-diabetic activity in fructose-treated male Wistar rat assessed as increase in HDL level at 30 mg/kg, po administered for 15 days (reference value: 25.35 +/-2.03 mg/dL); format: functional; settings: time 15 day
# Rattus norvegicus [16] = experiment: Anti-diabetic activity in fructose-treated male Wistar rat assessed as decrease in adipocyte count 30 mg/kg, po administered for 15 days by H and E staining based analysis; format: functional, organism-based; settings: time 15.0 day
# [17] = Drug recovery in rat plasma at 50 mg/kg, po by HPLC analysis; format: ADME, organism-based; settings: in vivo
# [18] = Cmax in male Wistar rat at 30 mg/kg, po measured upto 24 hrs; format: ADME, organism-based; settings: in vivo
# Rattus norvegicus [19] = experiment: Anti-diabetic activity in fructose-treated male Wistar rat assessed as ballooning degeneration in liver 30 mg/kg, po administered for 15 days by H and E staining based analysis; format: functional, organism-based; settings: time 15.0 day
# Rattus norvegicus [20] = experiment: Anti-diabetic activity in fructose-treated male Wistar rat assessed as decrease in triglycerides level at 30 mg/kg, po administered for 15 days (reference value: 140.03 +/-3.55 mg/dL); format: functional; settings: time 15 day
# Rattus norvegicus [21] = experiment: Anti-diabetic activity in fructose-treated male Wistar rat assessed as kupffer cell hyperplasia in liver 30 mg/kg, po administered for 15 days by H and E staining based analysis; format: functional, organism-based; settings: time 15.0 day
# Rattus norvegicus [22] = experiment: Anti-diabetic activity in fructose-treated male Wistar rat assessed as increase in HOMO-IR level at 30 mg/kg, po administered for 15 days; format: functional, organism-based; settings: time 15.0 day
# Rattus norvegicus [23] = experiment: Anti-diabetic activity in fructose-treated male Wistar rat assessed as increase in glycogen content in liver at 30 mg/kg, po administered for 15 days; format: functional, organism-based; settings: time 15.0 day
# Rattus norvegicus [24] = experiment: Anti-diabetic activity in Wistar rat Diaphragm assessed as […] at 30 mg/kg, po administered for 15 days; format: functional, organism-based; settings: time 15.0 day
# Rattus norvegicus [25] = experiment: Anti-diabetic activity in fructose-treated male Wistar rat assessed as decrease in MDA level in liver at 30 mg/kg, po administered for 15 days (reference value: 294.65 +/-11.78 nM/mg ); format: functional; settings: time 15 day
# [26] = Tmax in male Wistar rat at 30 mg/kg, po measured upto 24 hrs; format: ADME, organism-based; settings: in vivo
# Rattus norvegicus [27] = experiment: Anti-diabetic activity in fructose-treated male Wistar rat assessed as decrease in VLDL level at 30 mg/kg, po administered for 15 days (reference value: 28 +/-0.28 mg/dL); format: functional; settings: time 15 day
# Rattus norvegicus [28] = experiment: Anti-diabetic activity in fructose-treated male Wistar rat assessed as decrease in insulin level at 30 mg/kg, po administered for 15 days by insulin tolerance test; format: functional, organism-based; settings: time 15.0 day
# Rattus norvegicus [29] = experiment: Anti-diabetic activity in fructose-treated male Wistar rat assessed as increase in SOD level in liver at 30 mg/kg, po administered for 15 days (reference value: 13.25 +/-1.35 U/ml); format: functional; settings: time 15 day
# Rattus norvegicus [30] = experiment: Anti-diabetic activity in fructose-treated male Wistar rat assessed as decrease in SGOT level at 30 mg/kg, po administered for 15 days (reference value: […]); format: functional; settings: time 15 day
# Rattus norvegicus [31] = experiment: Anti-diabetic activity in fructose-treated male Wistar rat assessed as increase in CAT level in liver at 30 mg/kg, po administered for 15 days (reference value: 27.65 +/-1.02 U/min); format: functional; settings: time 15 day
# [32] = target: T1, Peroxisome proliferator-activated receptor gamma (Homo sapiens) (UniProt P37231); experiment: Agonist activity at PPARgamma in human HepG2 cells assessed as increase in PPARgamma transcription factor expression by ELISA analysis; format: cell-based; settings: filed as agonist, dose 6.25-50 µM
# T1 sequence (whole entry): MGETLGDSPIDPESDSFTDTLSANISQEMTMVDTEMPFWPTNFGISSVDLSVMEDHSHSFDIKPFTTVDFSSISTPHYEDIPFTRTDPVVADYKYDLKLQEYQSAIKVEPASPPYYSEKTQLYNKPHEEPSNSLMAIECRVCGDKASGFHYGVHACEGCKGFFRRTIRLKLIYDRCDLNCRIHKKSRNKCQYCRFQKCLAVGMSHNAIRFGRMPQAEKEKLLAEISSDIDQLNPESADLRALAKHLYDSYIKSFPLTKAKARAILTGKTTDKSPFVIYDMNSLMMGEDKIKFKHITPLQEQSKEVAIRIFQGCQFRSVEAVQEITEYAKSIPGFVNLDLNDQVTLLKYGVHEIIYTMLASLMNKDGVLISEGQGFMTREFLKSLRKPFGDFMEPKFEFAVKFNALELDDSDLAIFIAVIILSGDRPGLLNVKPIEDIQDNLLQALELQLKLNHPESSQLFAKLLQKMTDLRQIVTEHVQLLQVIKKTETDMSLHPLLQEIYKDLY
# [33] = AUC (0 to t) in male Wistar rat at 30 mg/kg, po measured upto 24 hrs; format: ADME, organism-based; settings: in vivo
# Rattus norvegicus [34] = experiment: Anti-diabetic activity in fructose-treated male Wistar rat assessed as lymphocyte infiltration in liver 30 mg/kg, po administered for 15 days by H and E staining based analysis; format: functional, organism-based; settings: time 15.0 day
# [35] = Drug recovery in rat plasma at 150 mg/kg, po by HPLC analysis; format: ADME, organism-based; settings: in vivo
# [36] = target: T1, Peroxisome proliferator-activated receptor gamma (Homo sapiens); experiment: Agonist activity at Gal4-fused human PPARgamma transfected in African green monkey CV-1 cells assessed as receptor transactivation incubated for 24 hrs by luciferase based assay relative to control; format: cell-based
# Rattus norvegicus [37] = experiment: Anti-diabetic activity in fructose-treated male Wistar rat assessed as change in HOMO-IR level at 30 mg/kg, po administered for 15 days; format: functional, organism-based; settings: time 15.0 day
smiles,measurement,setting,value
N#C[C@H]1CCCN1C(=O)CN1C(=O)S/C(=C\c2ccccc2)C1=O,Activity,L6,63.23%
COc1cc(/C=C2\SC(=O)N(CC(=O)N3CCC[C@@H]3C#N)C2=O)cc(OC)c1OC,Activity,L6,69.74%
N#C[C@H]1CCCN1C(=O)CN1C(=O)S/C(=C\c2ccc(F)cc2)C1=O,half-life,[1],3.96 h
same,Activity,Rattus norvegicus [2],Active
same,Activity,Rattus norvegicus [3],39.72 U/L
same,Activity,Rattus norvegicus [4],112.3 mg/dL
same,Activity,Rattus norvegicus [5],58.63 nM/mg
same,Retention_time,[6],6.7 min
same,Activity,[7],Non-toxic
same,Drug recovery,[8],99.58%
same,Activity,Rattus norvegicus [9],42.74 mg/dL
same,Activity,[10],Non-toxic
same,Activity,Rattus norvegicus [11],Active
same,Activity,Rattus norvegicus [12],Active
same,AUC(0-inf),[13],6240 ng·h/mL
same,Activity,Rattus norvegicus [14],Active
same,Activity,Rattus norvegicus [15],51.39 mg/dL
same,Activity,Rattus norvegicus [16],Active
same,Drug recovery,[17],99.96%
same,Cmax,[18],926 ng/mL
same,Activity,Rattus norvegicus [19],Active
same,Activity,Rattus norvegicus [20],86.15 mg/dL
same,Activity,Rattus norvegicus [21],Active
same,Activity,Rattus norvegicus [22],Active
same,Activity,Rattus norvegicus [23],Active
same,Activity,Rattus norvegicus [24],Active
same,Activity,Rattus norvegicus [25],224.65 nM/mg
same,Tmax,[26],2 h
same,Activity,Rattus norvegicus [27],17.23 mg/dL
same,Activity,Rattus norvegicus [28],Active
same,Activity,Rattus norvegicus [29],20.36 U/ml
same,Activity,Rattus norvegicus [30],46.36 U/L
same,Activity,Rattus norvegicus [31],48.65 U/min
same,Activity,L6,74.58%
same,Activity,[32],Dose-dependent-effect
same,AUC(0-t) at 24 h,[33],5620 ng·h/mL
same,Activity,Rattus norvegicus [34],Active
same,Drug recovery,[35],98.36%
N#C[C@H]1CCCN1C(=O)CN1C(=O)S/C(=C\c2ccccc2O)C1=O,Activity,L6,72.86%
Cc1ccc(/C=C2\SC(=O)N(CC(=O)N3CCC[C@@H]3C#N)C2=O)cc1,Activity,L6,64.57%
COc1ccc(/C=C2\SC(=O)N(CC(=O)N3CCC[C@@H]3C#N)C2=O)cc1OC,Activity,L6,64.56%
COc1ccc(/C=C2\SC(=O)N(CC(=O)N3CCC[C@@H]3C#N)C2=O)cc1,Activity,L6,58.66%
O=C1NC(=O)C(Cc2ccc(OCc3cccc(Br)c3)cc2)S1 (stereo unspecified),Activity,[36],21.2%
CN(C)c1ccc(/C=C2\SC(=O)N(CC(=O)N3CCC[C@@H]3C#N)C2=O)cc1,Activity,L6,64.18%
N#C[C@H]1CCCN1C(=O)CN1C(=O)S/C(=C\c2ccco2)C1=O,Activity,L6,57.4%
N#C[C@H]1CCCN1C(=O)CN1C(=O)S/C(=C\c2ccc(O)cc2)C1=O,half-life,[1],4.21 h
same,Activity,Rattus norvegicus [2],Active
same,Activity,Rattus norvegicus [3],37.12 U/L
same,Activity,Rattus norvegicus [4],114.79 mg/dL
same,Activity,Rattus norvegicus [5],61.35 nM/mg
same,Retention_time,[6],4.4 min
same,Activity,[7],Non-toxic
same,Drug recovery,[8],101%
same,Activity,Rattus norvegicus [9],47.8 mg/dL
same,Activity,[10],Non-toxic
same,Activity,Rattus norvegicus [11],Active
same,Activity,Rattus norvegicus [12],Active
same,AUC(0-inf),[13],6620 ng·h/mL
same,Activity,Rattus norvegicus [14],Active
same,Activity,Rattus norvegicus [15],53.25 mg/dL
same,Activity,Rattus norvegicus [16],Active
same,Drug recovery,[17],97.1%
same,Cmax,[18],1030 ng/mL
same,Activity,Rattus norvegicus [19],Active
same,Activity,Rattus norvegicus [20],76.18 mg/dL
same,Activity,Rattus norvegicus [37],Active
same,Activity,Rattus norvegicus [21],Active
same,Activity,Rattus norvegicus [23],Active
same,Activity,Rattus norvegicus [24],Active
same,Activity,Rattus norvegicus [25],197.32 nM/mg
same,Tmax,[26],2.21 h
same,Activity,Rattus norvegicus [27],15.23 mg/dL
same,Activity,Rattus norvegicus [28],Active
same,Activity,Rattus norvegicus [29],24.68 U/ml
same,Activity,Rattus norvegicus [30],41.32 U/L
same,Activity,Rattus norvegicus [31],52.36 U/min
same,Activity,L6,79.29%
same,Activity,[32],Dose-dependent-effect
same,AUC(0-t) at 24 h,[33],5980 ng·h/mL
same,Activity,Rattus norvegicus [34],Active
same,Drug recovery,[35],96.1%

# From ChEMBL document CHEMBL6074653, “Reversal of insulin resistance to combat type 2 diabetes mellitus by newer thiazolidinedione's in fructose induced insulin resistant rats” (Eur J Med Chem, 2024)
